Assays:
[1] = target: hGYS1 enzyme (recombinant hGYS1/GN1 protein) (Homo sapiens (Human), UniProt P13807); test: GYS1 coupled enzyme assay (PK/LDH); type: biochemical; conditions: hGYS1/GN1 50 nM, UDP-Glucose 0.8 mM, G6P 1 mM; geometric mean of at least 2 runs
[2] = target: hGYS2 enzyme (recombinant hGYS2/GN1 protein) (Homo sapiens (Human), UniProt P54840); test: GYS2 coupled enzyme assay (PK/LDH); type: biochemical; conditions: geometric mean of at least 2 assay runs on separate days, read-out: Avg_IC50
In short: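 Read-out: NADH loss at 340 nm, read each minute for 10 min, slope normalized to controls, duplicate % inhibition fit to Hill (0–100). Enzyme: 200 nM hGYS2/GN1; substrate 2 mM UDP-glucose plus 0.2% glycogen and 2 mM G6P; pH 7.5 Tris, 2.5% DMSO.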

hGYS2 enzyme (recombinant hGYS2/GN1 protein), sequence (P54840 whole entry): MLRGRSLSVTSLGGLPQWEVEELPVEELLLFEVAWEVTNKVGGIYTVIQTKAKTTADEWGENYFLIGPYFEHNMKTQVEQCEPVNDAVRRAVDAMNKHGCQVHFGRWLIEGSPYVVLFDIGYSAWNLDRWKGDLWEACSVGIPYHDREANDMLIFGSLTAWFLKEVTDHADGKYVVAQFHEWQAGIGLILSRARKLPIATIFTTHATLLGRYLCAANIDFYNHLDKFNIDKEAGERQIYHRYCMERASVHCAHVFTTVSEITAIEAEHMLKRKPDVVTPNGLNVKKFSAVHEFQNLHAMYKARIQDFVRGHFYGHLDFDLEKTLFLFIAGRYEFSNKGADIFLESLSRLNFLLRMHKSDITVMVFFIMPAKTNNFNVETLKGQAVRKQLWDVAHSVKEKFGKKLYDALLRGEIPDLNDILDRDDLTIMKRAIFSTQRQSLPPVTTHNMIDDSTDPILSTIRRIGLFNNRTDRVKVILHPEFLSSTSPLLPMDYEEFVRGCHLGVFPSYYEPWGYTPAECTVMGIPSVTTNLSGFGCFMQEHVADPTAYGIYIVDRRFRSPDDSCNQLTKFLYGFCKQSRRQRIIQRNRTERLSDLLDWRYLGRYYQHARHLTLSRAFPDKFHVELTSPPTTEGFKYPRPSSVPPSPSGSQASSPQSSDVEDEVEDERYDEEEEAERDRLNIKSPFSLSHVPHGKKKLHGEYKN
hGYS2 enzyme (recombinant hGYS2/GN1 protein), sequence (P46976 whole entry partner): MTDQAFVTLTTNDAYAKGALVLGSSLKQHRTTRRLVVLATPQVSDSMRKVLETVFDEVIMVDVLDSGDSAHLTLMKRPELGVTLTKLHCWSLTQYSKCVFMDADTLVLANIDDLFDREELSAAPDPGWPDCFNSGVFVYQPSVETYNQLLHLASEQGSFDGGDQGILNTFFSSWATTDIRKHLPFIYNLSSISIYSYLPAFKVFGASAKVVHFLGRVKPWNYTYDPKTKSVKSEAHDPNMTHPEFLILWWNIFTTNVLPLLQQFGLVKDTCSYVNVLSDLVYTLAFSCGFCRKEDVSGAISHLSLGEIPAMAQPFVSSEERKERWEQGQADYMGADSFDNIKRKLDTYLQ
hGYS1 enzyme (recombinant hGYS1/GN1 protein), sequence (P13807 whole entry): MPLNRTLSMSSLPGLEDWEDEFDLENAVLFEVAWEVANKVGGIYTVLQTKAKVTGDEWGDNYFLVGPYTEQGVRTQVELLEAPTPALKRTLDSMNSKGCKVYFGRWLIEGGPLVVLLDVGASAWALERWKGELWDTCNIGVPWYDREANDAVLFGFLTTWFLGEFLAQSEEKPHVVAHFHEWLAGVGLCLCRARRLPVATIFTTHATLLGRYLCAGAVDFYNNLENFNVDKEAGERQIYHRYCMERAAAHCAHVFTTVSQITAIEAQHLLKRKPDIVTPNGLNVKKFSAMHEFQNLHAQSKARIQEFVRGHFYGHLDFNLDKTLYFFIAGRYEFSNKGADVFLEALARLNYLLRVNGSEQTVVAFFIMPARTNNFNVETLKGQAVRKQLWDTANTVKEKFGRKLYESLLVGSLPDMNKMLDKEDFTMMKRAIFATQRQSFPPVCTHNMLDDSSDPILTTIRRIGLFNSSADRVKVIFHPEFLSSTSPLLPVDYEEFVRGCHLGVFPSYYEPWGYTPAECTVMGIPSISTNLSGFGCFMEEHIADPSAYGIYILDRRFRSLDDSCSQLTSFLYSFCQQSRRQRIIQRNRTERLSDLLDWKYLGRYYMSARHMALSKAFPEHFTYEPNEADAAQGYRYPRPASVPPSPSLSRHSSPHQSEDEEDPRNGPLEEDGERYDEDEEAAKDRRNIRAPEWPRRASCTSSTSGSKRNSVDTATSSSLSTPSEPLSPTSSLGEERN
hGYS1 enzyme (recombinant hGYS1/GN1 protein), sequence (P46976 whole entry partner): as the sequence (P46976 whole entry partner) above

CC(C)c1ccc([C@@H](NC(=O)[C@@H]2C[C@@H](F)CN2C(=O)C2CCNC(=O)C2)c2ccccc2)cc1 (stereo partly drawn) [Compound 93, (2S,4R)-4-fluoro-1-(2-oxopiperidin-4-carbonyl)-N-[(S)-phenyl[4-(propan-2-yl)phenyl]methyl]pyrrolidine-2-carboxamide]
IC50 [1]: 108 nM
IC50 [2]: > 100000 nM

CC(C)c1ccc([C@@H](NC(=O)[C@@H]2C[C@@H](F)CN2C(=O)CCCc2cccnc2)c2ccccc2)cc1 [Compound 94, (2S,4R)-4-fluoro-N-[(S)-phenyl[4-(propan-2-yl)phenyl]methyl]-1-[4-(pyridin-3-yl)butanoyl]pyrrolidine-2-carboxamide]
IC50 [1]: 188 nM
IC50 [2]: > 100000 nM

CC(C)c1ccc([C@@H](NC(=O)[C@@H]2C[C@@H](F)CN2C(=O)CCCc2ccncc2)c2ccccc2)cc1 [Compound 95, (2S,4R)-4-fluoro-N-[(S)-phenyl[4-(propan-2-yl)phenyl]methyl]-1-[4-(pyridin-4-yl)butanoyl]pyrrolidine-2-carboxamide]
IC50 [1]: 130 nM
IC50 [2]: > 100000 nM

CC(C)c1ccc([C@@H](NC(=O)[C@@H]2C[C@@H](F)CN2C(=O)Cc2ccc3ncccc3c2)c2ccccc2)cc1 [Compound 96, (2S,4R)-4-fluoro-N-[(S)-phenyl[4-(propan-2-yl)phenyl]methyl]-1-[2-(quinolin-6-yl)acetyl]pyrrolidine-2-carboxamide]
IC50 [1]: 21 nM
IC50 [2]: > 100000 nM

CC(Cc1ccncc1)C(=O)N1C[C@H](F)C[C@H]1C(=O)N[C@@H](c1ccccc1)c1ccc(C(C)C)cc1 (stereo partly drawn) [Compound 98, (2S,4R)-4-fluoro-1-[2-methyl-3-(pyridin-4-yl)propanoyl]-N-[(S)-phenyl[4-(propan-2-yl)phenyl]methyl]pyrrolidine-2-carboxamide]
IC50 [1]: 244 nM
IC50 [2]: > 100000 nM

Cc1cc(CCC(=O)N2C[C@H](F)C[C@H]2C(=O)N[C@@H](c2ccccc2)c2ccc(C(C)C)cc2)ccn1 [Compound 99, (2S,4R)-4-fluoro-1-[3-(2-methylpyridin-4-yl)propanoyl]-N-[(S)-phenyl[4-(propan-2-yl)phenyl]methyl]pyrrolidine-2-carboxamide]
IC50 [1]: 65 nM
IC50 [2]: > 100000 nM

Cc1ccc(CCC(=O)N2C[C@H](F)C[C@H]2C(=O)N[C@@H](c2ccccc2)c2ccc(C(C)C)cc2)cn1 [Compound 100, (2S,4R)-4-fluoro-1-[3-(6-methylpyridin-3-yl)propanoyl]-N-[(S)-phenyl[4-(propan-2-yl)phenyl]methyl]pyrrolidine-2-carboxamide]
IC50 [1]: 73 nM
IC50 [2]: > 100000 nM

Cc1ccc(CCC(=O)N2C[C@H](F)C[C@H]2C(=O)N[C@@H](c2ccccc2)c2ccc(C(C)C)cc2)nc1 [Compound 101, (2S,4R)-4-fluoro-1-[3-(5-methylpyridin-2-yl)propanoyl]-N-[(S)-phenyl[4-(propan-2-yl)phenyl]methyl]pyrrolidine-2-carboxamide]
IC50 [1]: 54 nM
IC50 [2]: > 100000 nM

Cc1ncccc1CCC(=O)N1C[C@H](F)C[C@H]1C(=O)N[C@@H](c1ccccc1)c1ccc(C(C)C)cc1 [Compound 102, (2S,4R)-4-fluoro-1-[3-(2-methylpyridin-3-yl)propanoyl]-N-[(S)-phenyl[4-(propan-2-yl)phenyl]methyl]pyrrolidine-2-carboxamide]
IC50 [1]: 58 nM
IC50 [2]: > 100000 nM

Cc1noc(C)c1CCC(=O)N1C[C@H](F)C[C@H]1C(=O)N[C@@H](c1ccccc1)c1ccc(C(C)C)cc1 [Compound 103, (2S,4R)-1-[3-(3,5-dimethyl-1,2-oxazol-4-yl)propanoyl]-4-fluoro-N-[(S)-phenyl[4-(propan-2-yl)phenyl]methyl]pyrrolidine-2-carboxamide]
IC50 [1]: 162 nM
IC50 [2]: > 100000 nM

CC(C)c1ccc([C@@H](NC(=O)[C@@H]2C[C@@H](F)CN2C(=O)CCc2c[nH]c3ncccc23)c2ccccc2)cc1 [Compound 104, (2S,4R)-4-fluoro-N-[(S)-phenyl[4-(propan-2-yl)phenyl]methyl]-1-(3-{1H-pyrrolo[2,3-b]pyridin-3-yl}propanoyl)pyrrolidine-2-carboxamide]
IC50 [1]: 61 nM
IC50 [2]: > 100000 nM

Cc1nccn1CCCC(=O)N1C[C@H](F)C[C@H]1C(=O)N[C@@H](c1ccccc1)c1ccc(C(C)C)cc1 [Compound 105, (2S,4R)-4-fluoro-1-[4-(2-methyl-1H-imidazol-1-yl)butanoyl]-N-[(S)-phenyl[4-(propan-2-yl)phenyl]methyl]pyrrolidine-2-carboxamide]
IC50 [1]: 249 nM
IC50 [2]: > 100000 nM

Cc1cc(C)n(CCC(=O)N2C[C@H](F)C[C@H]2C(=O)N[C@@H](c2ccccc2)c2ccc(C(C)C)cc2)n1 [Compound 106, (2S,4R)-1-[3-(3,5-dimethyl-1H-pyrazol-1-yl)propanoyl]-4-fluoro-N-[(S)-phenyl[4-(propan-2-yl)phenyl]methyl]pyrrolidine-2-carboxamide]
IC50 [1]: 186 nM
IC50 [2]: > 100000 nM

CC(=O)Nc1ccc(CC(=O)N2C[C@H](F)C[C@H]2C(=O)N[C@@H](c2ccccc2)c2ccc(C(C)C)cc2)cc1 [Compound 107, (2S,4R)-1-[2-(4-acetamidophenyl)acetyl]-4-fluoro-N-[(S)-phenyl[4-(propan-2-yl)phenyl]methyl]pyrrolidine-2-carboxamide]
IC50 [1]: 19 nM
IC50 [2]: > 100000 nM

CC(C)c1ccc([C@@H](NC(=O)[C@@H]2C[C@@H](F)CN2C(=O)CCC(=O)N2CCCC2)c2ccccc2)cc1 [Compound 108, (2S,4R)-4-fluoro-1-[4-oxo-4-(pyrrolidin-1-yl)butanoyl]-N-[(S)-phenyl[4-(propan-2-yl)phenyl]methyl]pyrrolidine-2-carboxamide]
IC50 [1]: 77 nM
IC50 [2]: > 100000 nM

CC(C)c1ccc([C@@H](NC(=O)[C@@H]2C[C@@H](F)CN2C(=O)CCc2c[nH]c3ccccc23)c2ccccc2)cc1 [Compound 109, (2S,4R)-4-fluoro-1-[3-(1H-indol-3-yl)propanoyl]-N-[(S)-phenyl[4-(propan-2-yl)phenyl]methyl]pyrrolidine-2-carboxamide]
IC50 [1]: 41 nM
IC50 [2]: > 100000 nM

Cc1ccc(CCC(=O)N2C[C@H](F)C[C@H]2C(=O)N[C@@H](c2ccccc2)c2ccc(C(C)C)cc2)c(C)n1 [Compound 110, (2S,4R)-1-[3-(2,6-dimethylpyridin-3-yl)propanoyl]-4-fluoro-N-[(S)-phenyl[4-(propan-2-yl)phenyl]methyl]pyrrolidine-2-carboxamide]
IC50 [1]: 33 nM
IC50 [2]: > 100000 nM

CC(C)c1ccc([C@@H](NC(=O)[C@@H]2C[C@@H](F)CN2C(=O)CCc2ccc(=O)[nH]n2)c2ccccc2)cc1 [Compound 114, (2S,4R)-4-fluoro-1-[3-(6-oxo-1,6-dihydropyridazin-3-yl)propanoyl]-N-[(S)-phenyl[4-(propan-2-yl)phenyl]methyl]pyrrolidine-2-carboxamide]
IC50 [1]: 208 nM
IC50 [2]: > 100000 nM

CC(C)c1ccc([C@@H](NC(=O)[C@@H]2C[C@@H](F)CN2C(=O)CN2C(=O)CNC2=O)c2ccccc2)cc1 [Compound 117, (2S,4R)-1-[2-(2,5-dioxoimidazolidin-1-yl)acetyl]-4-fluoro-N-[(S)-phenyl[4-(propan-2-yl)phenyl]methyl]pyrrolidine-2-carboxamide]
IC50 [1]: 49 nM
IC50 [2]: > 100000 nM

CC(C)c1ccc([C@@H](NC(=O)[C@@H]2C[C@@H](F)CN2C(=O)Cc2ccc3ncnn3c2)c2ccccc2)cc1 [Compound 118, (2S,4R)-4-fluoro-N-[(S)-phenyl[4-(propan-2-yl)phenyl]methyl]-1-(2-{[1,2,4]triazolo[1,5-a]pyridin-6-yl}acetyl)pyrrolidine-2-carboxamide]
IC50 [1]: 20 nM
IC50 [2]: > 100000 nM

CC(C)c1ccc([C@@H](NC(=O)[C@@H]2C[C@@H](F)CN2C(=O)Cc2noc3ccccc23)c2ccccc2)cc1 [Compound 119, (2S,4R)-1-[2-(1,2-benzoxazol-3-yl)acetyl]-4-fluoro-N-[(S)-phenyl[4-(propan-2-yl)phenyl]methyl]pyrrolidine-2-carboxamide]
IC50 [1]: 109 nM
IC50 [2]: > 100000 nM

CC(C)c1ccc([C@@H](NC(=O)[C@@H]2C[C@@H](F)CN2C(=O)Cc2cnc3ccccn23)c2ccccc2)cc1 [Compound 121]
IC50 [1]: 15 nM
IC50 [2]: > 100000 nM

Cc1cc(C)n(CC(=O)N2C[C@H](F)C[C@H]2C(=O)N[C@@H](c2ccccc2)c2ccc(C(C)C)cc2)n1 [Compound 125, (2S,4R)-1-[2-(3,5-dimethyl-1H-pyrazol-1-yl)acetyl]-4-fluoro-N-[(S)-phenyl[4-(propan-2-yl)phenyl]methyl]pyrrolidine-2-carboxamide]
IC50 [1]: 23 nM
IC50 [2]: > 100000 nM

CC(C)c1ccc([C@@H](NC(=O)[C@@H]2C[C@@H](F)CN2C(=O)Cn2ccc3c(F)cccc32)c2ccccc2)cc1 [Compound 128, (2S,4R)-4-fluoro-1-[2-(4-fluoro-1H-indol-1-yl)acetyl]-N-[(S)-phenyl[4-(propan-2-yl)phenyl]methyl]pyrrolidine-2-carboxamide]
IC50 [1]: 56 nM
IC50 [2]: > 100000 nM

CC(C)c1ccc([C@@H](NC(=O)[C@@H]2C[C@@H](F)CN2C(=O)CS(=O)(=O)N2CCCC2)c2ccccc2)cc1 [Compound 129, (2S,4R)-4-fluoro-N-[(S)-phenyl[4-(propan-2-yl)phenyl]methyl]-1-[2-(pyrrolidine-1-sulfonyl)acety]pyrrolidine-2-carboxamide]
IC50 [1]: 217 nM
IC50 [2]: > 100000 nM

CC(C)c1ccc([C@@H](NC(=O)[C@@H]2C[C@@H](F)CN2C(=O)Cc2cccc3ncccc23)c2ccccc2)cc1 [Compound 130, (2S,4R)-4-fluoro-N-[(S)-phenyl[4-(propan-2-yl)phenyl]methyl]-1-[2-(quinolin-5-yl)acetyl]pyrrolidine-2-carboxamide]
IC50 [1]: 7 nM
IC50 [2]: > 100000 nM
